Assay results from ChEMBL document CHEMBL4007474, “Soluble epoxide hydrolase inhibitors of indolinone alkaloids and phenolic derivatives from Cimicifuga dahurica (Turcz.) Maxim” (Bioorg Med Chem Lett, 2017).
Calls of active or inactive are those of the source. The rule behind the calls is not given here.

Columns and labels:
[1] = target: T1, Bifunctional epoxide hydrolase 2 (Homo sapiens) (UniProt P34913); assay: Inhibition of sEH (unknown origin) at 100 uM using PHOME as substrate after 40 mins by fluorescence photometric method relative to control
T1 sequence (whole entry): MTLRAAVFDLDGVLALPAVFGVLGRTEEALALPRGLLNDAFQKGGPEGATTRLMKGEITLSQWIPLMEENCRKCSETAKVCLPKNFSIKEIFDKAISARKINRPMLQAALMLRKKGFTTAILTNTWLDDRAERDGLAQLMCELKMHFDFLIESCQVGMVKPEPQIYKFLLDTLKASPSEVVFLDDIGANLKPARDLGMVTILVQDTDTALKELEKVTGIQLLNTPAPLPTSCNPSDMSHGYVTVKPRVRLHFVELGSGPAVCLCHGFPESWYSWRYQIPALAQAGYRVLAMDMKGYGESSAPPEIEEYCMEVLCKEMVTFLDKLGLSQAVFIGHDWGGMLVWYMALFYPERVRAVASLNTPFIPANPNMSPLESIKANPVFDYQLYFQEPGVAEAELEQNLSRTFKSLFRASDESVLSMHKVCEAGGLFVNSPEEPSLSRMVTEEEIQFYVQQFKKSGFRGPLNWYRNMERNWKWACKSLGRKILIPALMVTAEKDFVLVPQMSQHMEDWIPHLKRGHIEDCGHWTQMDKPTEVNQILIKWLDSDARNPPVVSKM

[2] = target: T1, Bifunctional epoxide hydrolase 2 (Homo sapiens); assay: Mixed type inhibition of sEH (unknown origin) at 0.78 to 6.25 uM using PHOME as substrate measured for 30 mins by Lineweaver-burk plot method
[3] = target: T2, Bifunctional epoxide hydrolase 2 (Homo sapiens, UniProt P34913); assay: (§1) Inhibition of sEH (unknown origin) using PHOME as substrate after 40 mins by fluorescence photometric method
T2 sequence (P34913 whole entry): T1 sequence (whole entry)

[4] = target: T1, Bifunctional epoxide hydrolase 2 (Homo sapiens); assay: as §1
[5] = target: T1, Bifunctional epoxide hydrolase 2 (Homo sapiens); assay: Competitive inhibition of sEH (unknown origin) at 0.78 to 6.25 uM using PHOME as substrate measured for 30 mins by Lineweaver-burk plot method
[6] = target: T1, Bifunctional epoxide hydrolase 2 (Homo sapiens); details: 0.78 to 6.25 uM

| Structure (SMILES) | inhibition [1] | inhibition [2] | IC50 [3] | inhibition [4] | inhibition [5] | inhibition [6] |
| --- | --- | --- | --- | --- | --- | --- |
| COC(=O)/C=C/c1ccc(O)c(OC)c1 | 99.2% | Active | 1800 nM | Dose-dependent effect |  |  |
| CC(C)=C/C=C1\C(=O)N(C)c2ccccc21 | 77% |  | 1300 nM | Dose-dependent effect | Active |  |
| O=C(/C=C/c1ccc(O)c(O)c1)O[C@@H]1C[C@](O)(C(=O)O)C[C@@H](OC(=O)/C=C/c2ccc(O)c(O)c2)[C@H]1O | 81.3% | Active | 2800 nM | Dose-dependent effect |  |  |
| COc1ccc(/C=C/C(=O)OCC(=O)Cc2ccc(O)c(O)c2)cc1O [CIMIRACEMATE A] | 104% |  | 1100 nM | Dose-dependent effect |  | Active |
| CC(C)=C/C=C1/C(=O)Nc2ccccc21 | 95.1% |  | 1000 nM | Dose-dependent effect | Active |  |
| CC(C)=C/C=C1/C(=O)N(C)c2ccccc21 | 80.2% |  | 800 nM | Dose-dependent effect | Active |  |
| COc1ccc(/C=C/C(=O)OCC(=O)c2ccc(O)c(O)c2)cc1O | 98.3% | Active | 1600 nM | Dose-dependent effect |  |  |
